In data set [1] the test system is MDCK tissue culture cells. Briefly: Cytotoxic action, maximal tolerated concentration in MDCK tissue culture cells.
Data set [2] relates to influenza A/New Caledonia/20/99 (H1N1) virus reference strain. As to the kind of experiment: microbe, parasite or virus in culture. In kind it is cell-based. As to conditions: for Activity at 10 μg/mL / specific activity in relation to influenza A virus reference strain (H1N1), in words / MIC50: MDCK cells; for MIC50: concentration inhibiting viral reproduction by 50%; for Chemotherapeutic Index: ratio of the MTC to the MIC50.

Data set [3] has as its system influenza A/Aichi/2/69 virus. As to the kind of experiment: Murine influenza pneumonia model. As to conditions: mean life span, 60 mg/kg/day, survivors counted with d=15. In kind it is in vivo, mice. On the procedure:
(§1) 2. Determination of the efficacy of the compounds in the murine influenza pneumonia model.
(§2) The mice were infected intranasally under light ether anesthesia with the influenza A/Aichi/2/69 ([…]) virus. […] The efficacy of the action of the compounds in the influenza pneumonia model were assessed according to the number of mice surviving after infection with the virus and the increase in mean life span
(§3) The mean life span of the mice was calculated according to the following formula: MSD [mean survival day]=Σ(f(d−1)[…], where f is the number of mice dying on day d; the surviving mice were also included in f, and d in this case was 15; n is the number of mice in the group.

Data set [4] concerns influenza A/Aichi/2/69 (H3N3) virus. Briefly: Murine influenza pneumonia model. Format: in vivo, mice. The conditions noted are these: for Mortality reduction: versus infected control; for Survived: number of mice surviving, n=10, 60 mg/kg/day. The procedure:
as §1, §2, §3

Values after ≈ are worked out from the molar mass of the structure shown. Where two headings read alike, the source gives them in different places.

Regarding `COc1cc2c(C(=O)N3CCCC3)c(CSc3ccccc3)n(C)c2cc1Br` [B], in data set [1], the “MTC of the Compounds” value was determined as 15 µg/mL. In addition, in data set [2], the “efficacy at 10 μg/mL compared with arbidol, in words” value is “did not differ from it”; the “Activity at 10 μg/mL” value is 100.0; the “specific activity in relation to influenza A virus reference strain (H1N1), in words” value (shortened to “specific activity in relation”) is reported as “high specific activity”; the MIC50 was 2.0 µg/mL (≈ 4.35 µM). For the same compound, in data set [2], the “Chemotherapeutic Index” value was found to be 7.5.
As to `COc1cc2c(C(=O)N3CCCCC3)c(CSc3ccccc3)n(C)c2cc1Br` [C], in data set [1], the “MTC of the Compounds” value turned out to be 25 µg/mL. In addition, in data set [2], the “Activity at 10 μg/mL” value is recorded as 52.1; the “specific activity in relation” value was “low activity”; the MIC50 was determined as 9.2 µg/mL (≈ 19.4 µM); the “Chemotherapeutic Index” value is recorded as 2.7.
For “1-{6-Bromo-1-methyl-5-methoxy-2-(phenylthio)methyl-1-H-indol-3-yl}-benzylpiperazine”, in data set [1], the “MTC of the Compounds” value stood at 40 µg/mL. Moreover, the “Life Span” value in data set [3] stood at 13.1 days. For the same compound, in data set [4] (60 mg/kg/day), the Mortality is listed as 20%; the “chemotherapeutic action compared with arbidol, in words” value is “not inferior to arbidol”; the Mortality reduction is 61%. Moreover, the Survived in data set [4] is on record as 8. For the same compound, in data set [2], the “efficacy at 10 μg/mL compared with arbidol, in words” value is “inferior to arbidol in efficacy”; the “Activity at 10 μg/mL” value amounted to 64.4; the “specific activity in relation” value was “high specific activity”; the MIC50 was 5.8 µg/mL. Besides, the “Chemotherapeutic Index” value in data set [2] is reported as 6.9.
Turning to `CCOC(=O)c1c(CSc2ccccc2)n(C)c2cc(Br)c(O)c(CN(C)C)c12` [Arbidol, 1-methyl-2-phenylthiomethyl-3-carbethoxy-4-dimethylaminomethyl-5-hydroxy-6-bromindol, reference compound], in data set [1], the “MTC of the Compounds” value was 40 µg/mL. In addition, in data set [3], the “Life Span” value came out at 12.2 days. Moreover, in data set [4] (60 mg/kg/day), the Mortality was found to be 20% and the Mortality reduction was found to be 61%. In data set [4], this compound registered a Survived of 8. For the same compound, in data set [2], the “Activity at 10 μg/mL” value worked out at 100.0 and the “Chemotherapeutic Index” value is on record as 6.7. The MIC50 in data set [2] (Influenza A virus, H1N1, read-out: MIC50) stood at 6 µg/mL (≈ 12.6 µM).
